According to patent US20180086810A1, “T CELL RECEPTOR FUSIONS AND CONJUGATES AND METHODS OF USE THEREOF” (ALTOR BIOSCIENCE CORPORATION, priority 2000, published 2018):

How the values were obtained:
HLA-A2 = biological target: T1, HLA-A2 (Homo sapiens, UniProt P04439, D140Y/D185E/D98H/E176V/E277Q/G131W/G231S/I119V/I121R/I166T/I218V/L300P/L318F/N151K/N90K/P208A/P217A/Q86G/Q94H/R138H/R169H/T345S); test: HLA-A2 loading of peptide on T2 cells, staining with HLA-A2 specific mAb BB7.2; format: cell-based; details: T2 cells pulsed with 50 μg peptide overnight; BB7.2 staining
T1 construct: HLA-A2 surface expression on T2 cells; endogenous in cells; host or cells: T2 cells
Description: (§1) Flow cytometry and immunofluoresence staining were used to show direct binding of the fusion protein via its TCR to peptide/HLA-A2 complexes on the surface of the human B lymphoid cell line T2 (FIG. 4) • A) Staining of 149 or 264 peptide pulsed T2 cells with 0.5 μg (10 μg/ml) of 264 scTCR-IL-2 fusion protein. […] To evaluate A2 loading of each peptide, the cells were stained with the HLA-A2 specific mAb BB7.2 […] after overnight incubation of the cells with peptide.

[1] = biological target: 264 peptide/HLA-A2 complexes on the surface of the human B lymphoid cell line T2 (Homo sapiens, UniProt P04439+P04637, D140Y/D185E/D98H/E176V/E277Q/G131W/G231S/I119V/I121R/I166T/I218V/L300P/L318F/N151K/N90K/P208A/P217A/Q86G/Q94H/R138H/R169H/T345S); test: Flow cytometry / immunofluorescence staining of peptide-pulsed T2 cells with fusion protein (264 peptide); format: binding; details: 0.5 μg (10 μg/ml) fusion protein; T2 cells pulsed with 264 peptide
Description: as §1

[2] = biological target: T2, 149 peptide/HLA-A2 complexes on the surface of the human B lymphoid cell line T2 (Homo sapiens, UniProt P04439+P04637, D140Y/D185E/D98H/E176V/E277Q/G131W/G231S/I119V/I121R/I166T/I218V/L300P/L318F/N151K/N90K/P208A/P217A/Q86G/Q94H/R138H/R169H/T345S); test: Flow cytometry / immunofluorescence staining of peptide-pulsed T2 cells with fusion protein (149 peptide); format: binding; details: 0.5 μg (10 μg/ml) fusion protein; T2 cells pulsed with 149 peptide
T2 construct: on the surface of the human B lymphoid cell line T2; endogenous in cells; host or cells: T2 cells pulsed with 149 peptide
Description: as §1

[3] = system: CTLL-2 cells and 264 peptide-loaded T2 cells; test: Cell-cell conjugation assay, CTLL-2 cells with 264 peptide-loaded T2 cells, flow cytometer; format: cell-based, murine CTLL-2, human T2
Description: (§2) In this experiment, T2 cells pulsed with either the 149 or 264 peptide. CTLL-2 cells were hydrodiethidium (HE) labeled and incubated for 20 minutes at RT with an equal number of calcein-AM labeled T2 cells pulsed with either 50 μg of 149 or 264 peptide. […] In contrast, conjugate formation was not observed with the mixture that included the 149 peptide pulsed T2 cells (B; 0.88%). Cell samples were washed one time before analysis on the flow cytometer.

[4] = system: CTLL-2 cells and 149 peptide pulsed T2 cells; test: Cell-cell conjugation assay, CTLL-2 cells with 149 peptide pulsed T2 cells, flow cytometer; format: cell-based, murine CTLL-2, human T2; details: fusion protein; HE-labeled CTLL-2 and calcein-AM labeled T2 pulsed with 50 μg 149 peptide; 20 minutes at RT
Description: as §2

Row | HLA-A2 binding of peptide (HLA-A2 surface expression on pulsed T2 cells) (HLA-A2) | binding of fusion protein to T2 cells displaying the 264 peptide [1] | binding of fusion protein to T2 cells displaying the 149 peptide [2] | Substance | conjugation between cells (conjugate formation) ([3]; 1 Ag of fusion protein, HE-labeled CTLL-2 and calcein-AM labeled T2 pulsed with 50 μg 264 peptide, 20 minutes at RT) [%] | conjugation between a T cell and an antigen presenting cell pulsed with the correct peptide ([3]; restatement of example 11) | conjugation between cells (conjugate formation) [4] [%]
1 | efficient HLA-A2 binding | – | – | LLGRNSFEV [264 peptide] | – | – | –
2 | – | binds specifically | not | 264 scTCR-IL-2 fusion protein: soluble 264 single-chain TCR covalently linked to human IL-2 with EE peptide tag | 3.25 | able to mediate conjugation | 0.88
